What was measured:
[1] = fT>MIC in neutropenic Swiss mouse thigh model infected with methicillin-resistant Staphylococcus aureus isolate 609 assessed as maximal effect on bacterial count reduction at 1.5 to 200 mg/kg, ip administered 2 hrs postinfection measured after 24 hrs; assay type: functional; settings: dose mg/kg 1.5-200; route intraperitoneal
[2] = Apparent volume of distribution with respect to bioavailability in neutropenic Swiss mouse thigh infection model at 20 mg/kg, ip; assay type: ADME, organism-based; settings: in vivo, read-out: Vc/F
[3] = Half life in neutropenic Swiss mouse thigh infection model at 20 mg/kg, ip; assay type: ADME, organism-based; parameters: dose 20 mg/kg, route intraperitoneal; settings: in vivo
[4] = Clearance with respect to bioavailability in neutropenic Swiss mouse thigh infection model at 100 mg/kg, ip; assay type: ADME, organism-based; settings: in vivo
Streptococcus pneumoniae [5] = assay: Antibacterial activity against Streptococcus pneumoniae ATCC 49619 after 24 hrs by broth microdilution method; assay type: functional; settings: ATCC 49619, 24 h
[6] = fT>MIC in neutropenic Swiss mouse thigh model infected with methicillin-resistant Staphylococcus aureus isolate 602 assessed as 1 log reduction of bacterial count at 1.5 to 200 mg/kg, ip administered 2 hrs postinfection measured after 24 hrs; assay type: functional; settings: dose mg/kg 1.5-200; route intraperitoneal
[7] = fT>MIC in neutropenic Swiss mouse thigh model infected with methicillin-resistant Staphylococcus aureus isolate 609 assessed as static effect on bacterial count reduction at 1.5 to 200 mg/kg, ip administered 2 hrs postinfection measured after 24 hrs; assay type: functional; settings: dose mg/kg 1.5-200; route intraperitoneal
[8] = Protein binding in neutropenic Swiss mouse thigh infection model serum at 20 mg/kg, ip by ultrafiltration; assay type: ADME, organism-based; parameters: dose 20 mg/kg, route intraperitoneal; settings: read-out: PB (converted)
[9] = fT>MIC in neutropenic Swiss mouse thigh model infected with methicillin-resistant Staphylococcus aureus 076 assessed as maximal effect on bacterial count reduction at 1.5 to 200 mg/kg, ip administered 2 hrs postinfection measured after 24 hrs; assay type: functional; settings: dose mg/kg 1.5-200; route intraperitoneal
[10] = fT>MIC in neutropenic Swiss mouse thigh model infected with methicillin-resistant Staphylococcus aureus isolate 602 assessed as static effect on bacterial count reduction at 1.5 to 200 mg/kg, ip administered 2 hrs postinfection measured after 24 hrs; assay type: functional; settings: dose mg/kg 1.5-200; route intraperitoneal
[11] = Clearance with respect to bioavailability in neutropenic Swiss mouse thigh infection model at 20 mg/kg, ip; assay type: ADME, organism-based; settings: in vivo
Staphylococcus aureus [12] = assay: Antibacterial activity against methicillin-resistant Staphylococcus aureus infected in neutropenic Swiss mouse thigh model assessed as maximal bactericidal effect per thigh at 1.5 to 200 mg/kg, ip administered 2 hrs of postinfection measured after 24 hrs; assay type: functional; settings: dose mg/kg 1.5-200; route intraperitoneal
Staphylococcus aureus [13] = assay: Antibacterial activity against methicillin-resistant Staphylococcus aureus 076 after 24 hrs by broth microdilution method; assay type: functional; settings: Staphylococcus aureus, 076, 24 h
Staphylococcus aureus [14] = assay: Antibacterial activity against methicillin-resistant Staphylococcus aureus isolate 609 after 24 hrs by broth microdilution method; assay type: functional; settings: isolate 609, 24 h
Staphylococcus aureus [15] = assay: Antibacterial activity against methicillin-resistant Staphylococcus aureus isolate 602 after 24 hrs by broth microdilution method; assay type: functional; settings: isolate 602, 24 h
[16] = Half life in neutropenic Swiss mouse thigh infection model at 100 mg/kg, ip; assay type: ADME, organism-based; parameters: dose 100 mg/kg, route intraperitoneal; settings: in vivo
[17] = fT>MIC in neutropenic Swiss mouse thigh model infected with Enterococcus faecalis EFS 007 assessed as 1 log reduction of bacterial count at 1.5 to 200 mg/kg, ip administered 2 hrs postinfection measured after 24 hrs; assay type: functional; settings: dose mg/kg 1.5-200; route intraperitoneal
Enterococcus faecalis [18] = assay: Antibacterial activity against Enterococcus faecalis ATCC 29212 after 24 hrs by broth microdilution method; assay type: functional; settings: ATCC 29212, 24 h
[19] = fT>MIC in neutropenic Swiss mouse thigh model infected with methicillin-resistant Staphylococcus aureus COL assessed as static effect on bacterial count reduction at 1.5 to 200 mg/kg, ip administered 2 hrs postinfection measured after 24 hrs; assay type: functional; settings: dose mg/kg 1.5-200; route intraperitoneal
[20] = fT>MIC in neutropenic Swiss mouse thigh model infected with Enterococcus faecalis ATCC 29212 assessed as 1 log reduction of bacterial count at 1.5 to 200 mg/kg, ip administered 2 hrs postinfection measured after 24 hrs; assay type: functional; settings: dose mg/kg 1.5-200; route intraperitoneal
[21] = fT>MIC in neutropenic Swiss mouse thigh model infected with Enterococcus faecalis EFS 007 assessed as static effect on bacterial count reduction at 1.5 to 200 mg/kg, ip administered 2 hrs postinfection measured after 24 hrs; assay type: functional; settings: dose mg/kg 1.5-200; route intraperitoneal
[22] = Tmax in neutropenic Swiss mouse thigh infection model at 20 mg/kg, ip; assay type: ADME, organism-based; parameters: dose 20 mg/kg, route intraperitoneal; settings: in vivo
[23] = Cmax in neutropenic Swiss mouse thigh infection model at 20 mg/kg, ip; assay type: ADME, organism-based; parameters: dose 20 mg/kg, route intraperitoneal; settings: in vivo
[24] = fT>MIC in neutropenic Swiss mouse thigh model infected with methicillin-resistant Staphylococcus aureus isolate 604 assessed as static effect on bacterial count reduction at 1.5 to 200 mg/kg, ip administered 2 hrs postinfection measured after 24 hrs; assay type: functional; settings: dose mg/kg 1.5-200; route intraperitoneal
[25] = Cmax in neutropenic Swiss mouse thigh infection model at 100 mg/kg, ip; assay type: ADME, organism-based; parameters: dose 100 mg/kg, route intraperitoneal; settings: in vivo
[26] = AUC in neutropenic Swiss mouse thigh infection model at 20 mg/kg, ip; assay type: ADME, organism-based; parameters: dose 20 mg/kg, route intraperitoneal; settings: in vivo
Enterococcus faecalis [27] = assay: Antibacterial activity against Enterococcus faecalis EFS 007 after 24 hrs by broth microdilution method; assay type: functional; settings: EFS 007, 24 h
[28] = fT>MIC in neutropenic Swiss mouse thigh model infected with Enterococcus faecalis ATCC 29212 assessed as static effect on bacterial count reduction at 1.5 to 200 mg/kg, ip administered 2 hrs postinfection measured after 24 hrs; assay type: functional; settings: dose mg/kg 1.5-200; route intraperitoneal
[29] = fT>MIC in neutropenic Swiss mouse thigh model infected with Enterococcus faecalis ATCC 29212 assessed as maximal effect on bacterial count reduction at 1.5 to 200 mg/kg, ip administered 2 hrs postinfection measured after 24 hrs; assay type: functional; settings: dose mg/kg 1.5-200; route intraperitoneal
Staphylococcus aureus [30] = assay: Antibacterial activity against methicillin-resistant Staphylococcus aureus isolate 604 after 24 hrs by broth microdilution method; assay type: functional; settings: isolate 604, 24 h
[31] = Apparent volume of distribution with respect to bioavailability in neutropenic Swiss mouse thigh infection model at 100 mg/kg, ip; assay type: ADME, organism-based; settings: in vivo, read-out: Vc/F
Streptococcus pneumoniae [32] = assay: Antibacterial activity against penicillin-resistant Streptococcus pneumoniae SP 019 after 24 hrs by broth microdilution method; assay type: functional; settings: SP 019, 24 h
[33] = fT>MIC in neutropenic Swiss mouse thigh model infected with methicillin-resistant Staphylococcus aureus 076 assessed as static effect on bacterial count reduction at 1.5 to 200 mg/kg, ip administered 2 hrs postinfection measured after 24 hrs; assay type: functional; settings: dose mg/kg 1.5-200; route intraperitoneal
[34] = fT>MIC in neutropenic Swiss mouse thigh model infected with Enterococcus faecalis EFS 007 assessed as maximal effect on bacterial count reduction at 1.5 to 200 mg/kg, ip administered 2 hrs postinfection measured after 24 hrs; assay type: functional; settings: dose mg/kg 1.5-200; route intraperitoneal
[35] = fT>MIC in neutropenic Swiss mouse thigh model infected with methicillin-resistant Staphylococcus aureus isolate 602 assessed as maximal effect on bacterial count reduction at 1.5 to 200 mg/kg, ip administered 2 hrs postinfection measured after 24 hrs; assay type: functional; settings: dose mg/kg 1.5-200; route intraperitoneal
[36] = fT>MIC in neutropenic Swiss mouse thigh model infected with Streptococcus pneumoniae ATCC 49619 assessed as 1 log reduction of bacterial count at 1.5 to 200 mg/kg, ip administered 2 hrs postinfection measured after 24 hrs; assay type: functional; settings: dose mg/kg 1.5-200; route intraperitoneal
[37] = fT>MIC in neutropenic Swiss mouse thigh model infected with Streptococcus pneumoniae ATCC 49619 assessed as static effect on bacterial count reduction at 1.5 to 200 mg/kg, ip administered 2 hrs postinfection measured after 24 hrs; assay type: functional; settings: dose mg/kg 1.5-200; route intraperitoneal
[38] = Tmax in neutropenic Swiss mouse thigh infection model at 100 mg/kg, ip; assay type: ADME, organism-based; parameters: dose 100 mg/kg, route intraperitoneal; settings: in vivo
[39] = fT>MIC in neutropenic Swiss mouse thigh model infected with Streptococcus pneumoniae ATCC 49619 assessed as 2 log reduction of bacterial count at 1.5 to 200 mg/kg, ip administered 2 hrs postinfection measured after 24 hrs; assay type: functional; settings: dose mg/kg 1.5-200; route intraperitoneal
[40] = fT>MIC in neutropenic Swiss mouse thigh model infected with penicillin-resistant Streptococcus pneumoniae SP 019 assessed as static effect on bacterial count reduction at 1.5 to 200 mg/kg, ip administered 2 hrs postinfection measured after 24 hrs; assay type: functional; settings: dose mg/kg 1.5-200; route intraperitoneal
[41] = fT>MIC in neutropenic Swiss mouse thigh model infected with penicillin-resistant Streptococcus pneumoniae SP 019 assessed as 1 log reduction of bacterial count at 1.5 to 200 mg/kg, ip administered 2 hrs postinfection measured after 24 hrs; assay type: functional; settings: dose mg/kg 1.5-200; route intraperitoneal
Enterococcus faecalis [42] = assay: Antibacterial activity against Enterococcus faecalis infected in neutropenic Swiss mouse thigh model assessed as maximal bactericidal effect per thigh at 1.5 to 200 mg/kg, ip administered 2 hrs of postinfection measured after 24 hrs; assay type: functional; settings: dose mg/kg 1.5-200; route intraperitoneal
[43] = fT>MIC in neutropenic Swiss mouse thigh model infected with Streptococcus pneumoniae ATCC 49619 assessed as maximal effect on bacterial count reduction at 1.5 to 200 mg/kg, ip administered 2 hrs postinfection measured after 24 hrs; assay type: functional; settings: dose mg/kg 1.5-200; route intraperitoneal
[44] = Protein binding in neutropenic Swiss mouse thigh infection model serum at 100 mg/kg, ip by ultrafiltration; assay type: ADME, organism-based; parameters: dose 100 mg/kg, route intraperitoneal; settings: read-out: PB (converted)
[45] = fT>MIC in neutropenic Swiss mouse thigh model infected with methicillin-resistant Staphylococcus aureus COL assessed as maximal effect on bacterial count reduction at 1.5 to 200 mg/kg, ip administered 2 hrs postinfection measured after 24 hrs; assay type: functional; settings: dose mg/kg 1.5-200; route intraperitoneal
Staphylococcus aureus [46] = assay: Antibacterial activity against methicillin-resistant Staphylococcus aureus COL after 24 hrs by broth microdilution method; assay type: functional
[47] = fT>MIC in neutropenic Swiss mouse thigh model infected with methicillin-resistant Staphylococcus aureus COL assessed as 1 log reduction of bacterial count at 1.5 to 200 mg/kg, ip administered 2 hrs postinfection measured after 24 hrs; assay type: functional; settings: dose mg/kg 1.5-200; route intraperitoneal
[48] = AUC in neutropenic Swiss mouse thigh infection model at 100 mg/kg, ip; assay type: ADME, organism-based; parameters: dose 100 mg/kg, route intraperitoneal; settings: in vivo
Streptococcus pneumoniae [49] = assay: Antibacterial activity against Streptococcus pneumoniae infected in neutropenic Swiss mouse thigh model assessed as maximal bactericidal effect per thigh at 1.5 to 200 mg/kg, ip administered 2 hrs of postinfection measured after 24 hrs; assay type: functional; settings: dose mg/kg 1.5-200; route intraperitoneal

CS(=O)(=O)O.NCCSCc1cnccc1SC1=C(C(=O)O)N2C(=O)[C@@H](NC(=O)/C(=N\O)c3nc(N)sc3Cl)[C@H]2SC1
fT>MIC [1]: 22% | Vd/F [2]: 0.3 L/kg | half-life [3]: 10.2 min | CL/F [4]: 15 mL/min/kg | MIC (Streptococcus pneumoniae [5]): 0.03 µg/mL | fT>MIC [6]: 20% | fT>MIC [7]: 16% | fraction unbound [8]: 0.4 | fT>MIC [9]: 32% | fT>MIC [10]: 17% | CL/F [11]: 20 mL/min/kg | log10cfu (Staphylococcus aureus [12]): -2.83 | MIC (Staphylococcus aureus [13]): 1 µg/mL | MIC (Staphylococcus aureus [14]): 0.5 µg/mL | MIC (Staphylococcus aureus [15]): 0.5 µg/mL | half-life [16]: 19.8 min | fT>MIC [17]: 56% | MIC (Enterococcus faecalis [18]): 0.06 µg/mL | fT>MIC [19]: 14% | fT>MIC [20]: 48% | fT>MIC [21]: 46% | Tmax [22]: 5.4 min | Cmax [23]: 47.3 µg/mL | fT>MIC [24]: 20% | Cmax [25]: 133 µg/mL | AUC [26]: 16600 ng·h/mL | MIC (Enterococcus faecalis [27]): 0.125 µg/mL | fT>MIC [28]: 30% | fT>MIC [29]: 60% | MIC (Staphylococcus aureus [30]): 0.5 µg/mL | Vd/F [31]: 0.44 L/kg | MIC (Streptococcus pneumoniae [32]): 0.5 µg/mL | fT>MIC [33]: 16% | fT>MIC [34]: 60% | fT>MIC [35]: 24% | fT>MIC [36]: 21% | fT>MIC [37]: 18% | Tmax [38]: 15.6 min | fT>MIC [39]: 23% | fT>MIC [40]: 16% | fT>MIC [41]: 22% | log10cfu (Enterococcus faecalis [42]): -1.65 | fT>MIC [43]: 28% | fraction unbound [44]: 0.4 | fT>MIC [45]: 36% | MIC (Staphylococcus aureus [46]): 1 µg/mL | fT>MIC [47]: 20% | AUC [48]: 108000 ng·h/mL | log10cfu (Streptococcus pneumoniae [49]): -3.75

From ChEMBL document CHEMBL1153553, “Pharmacodynamics of RWJ-54428 against Staphylococcus aureus, Streptococcus pneumoniae, and Enterococcus faecalis in a neutropenic mouse thigh infection model” (Antimicrob Agents Chemother, 2008)
